How the values were obtained:
[1] = target: Endothelial lipase (EL) (Homo sapiens (Human), UniProt Q9Y5X9); test: EL assay: endothelial lipase activity with fluorescent substrate A10070 in DMPG vesicles; assay type: biochemical
Method in brief: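 Compounds were preincubated with enzyme for 30 min at 37° C before FRET-substrate vesicles (A10070 in DMPG, 0.11 mole fraction) were added. Reaction rates were obtained from the 300–900 sec slope of fluorescence at 490/530 nm.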

[2] = target: hepatic lipase (HL) (Homo sapiens (Human), UniProt P11150); test: HL assay: hepatic lipase activity with fluorescent substrate A10070 in DMPG vesicles; assay type: biochemical
Sequence of hepatic lipase (HL) (P11150 23-499, species assumed): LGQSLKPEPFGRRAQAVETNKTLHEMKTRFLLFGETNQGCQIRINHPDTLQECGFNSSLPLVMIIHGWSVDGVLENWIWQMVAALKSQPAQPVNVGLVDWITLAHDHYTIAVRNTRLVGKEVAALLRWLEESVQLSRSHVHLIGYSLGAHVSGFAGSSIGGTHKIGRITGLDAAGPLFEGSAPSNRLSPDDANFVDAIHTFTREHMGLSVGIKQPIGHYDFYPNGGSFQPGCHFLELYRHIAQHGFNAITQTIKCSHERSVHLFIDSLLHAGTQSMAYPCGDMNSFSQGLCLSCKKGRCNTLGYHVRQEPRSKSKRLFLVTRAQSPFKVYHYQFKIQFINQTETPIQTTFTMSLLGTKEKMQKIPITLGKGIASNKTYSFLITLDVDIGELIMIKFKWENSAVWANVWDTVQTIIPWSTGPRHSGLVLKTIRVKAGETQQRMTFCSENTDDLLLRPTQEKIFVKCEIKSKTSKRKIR
Procedure: Endothelial lipase (EL) and hepatic lipase (HL) activities were measured using a fluorescent substrate, A10070, (Invitrogen, CA) doped into an artificial vesicle containing DMPG (Avanti Polar Lipids) as the excipient. Vesicles were prepared by combining 571 μL of 29 mM DMPG in a 1:1 mixture of MeOH and CHCl3 with 2000 μL of 1 mM A10070 in a 1:1 mixture of MeOH and CHCl3. The mixture was dried under nitrogen in multiple vials then resuspended in 20 mL total volume of 50 mM HEPES pH 8.0 buffer containing 50 mM NaCl and 0.2 mM EDTA. The sample was allowed to sit at room temperature for 15 min and then was sonicated 3×4 mins on ice with a Branson Sonicator using duty cycle 1. This preparation provides vesicles with a mole fraction of 0.11 for the FRET substrate.
The enzymatic assay was measured using 384-well white Optiplates. Each well contained 20 μL of assay buffer (50 mM HEPES pH 8.0, 50 mM NaCl and 1 mM CaCl2) and 0.25 μL of a DMSO solution containing a compound of interest. EL or HL (10 μL) was added and allowed to incubate with the compound for 30 min at 37° C. The source of EL was conditioned media obtained from HT-1080 cells that were transformed using RAGE technology (Athersys) to overexpress endogenous EL, and HL was partially purified from conditioned media obtained from COS cells overexpressing HL. The reaction was started by the addition of 10 μL of a 1:10 dilution of vesicles. The final total reaction volume was […]. The reaction rates were measured on a Gemini plate reader with an excitation wavelength of 490 nm and an emission wavelength of 530 nm. Readings were taken over a period of 60 minutes, and the slope between 300 and 900 secs of the readout was used to calculate the rate of the reaction.

Sequence of Endothelial lipase (EL) (Q9Y5X9 21-500): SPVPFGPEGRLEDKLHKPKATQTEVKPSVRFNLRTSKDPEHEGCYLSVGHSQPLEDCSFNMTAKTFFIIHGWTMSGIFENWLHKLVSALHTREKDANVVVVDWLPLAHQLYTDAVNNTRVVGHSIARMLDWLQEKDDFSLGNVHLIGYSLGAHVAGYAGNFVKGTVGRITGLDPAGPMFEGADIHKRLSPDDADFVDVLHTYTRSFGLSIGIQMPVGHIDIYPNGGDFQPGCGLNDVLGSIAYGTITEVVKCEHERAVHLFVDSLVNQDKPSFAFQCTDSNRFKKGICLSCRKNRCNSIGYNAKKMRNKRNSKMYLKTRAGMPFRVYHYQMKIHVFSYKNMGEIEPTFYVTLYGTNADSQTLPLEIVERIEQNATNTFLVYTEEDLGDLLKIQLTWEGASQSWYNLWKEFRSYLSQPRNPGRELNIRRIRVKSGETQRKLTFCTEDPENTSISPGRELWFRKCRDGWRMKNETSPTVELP

Row | Structure (SMILES) | IC50 [1] | IC50 [2]
1 | CS(=O)(=O)C(C(=O)NCCS(N)(=O)=O)c1nc2ccc(-c3cnn(-c4ccc(F)cc4)c3)cc2s1 (stereo not drawn) [Example B74, 2-(6-(1-(4-fluorophenyl)-1H-pyrazol-4-yl)-1,3-benzothiazol-2-yl)-2-(methylsulfonyl)-N-(2-sulfamoylethyl)acetamide] | < 10 nM | < 10 nM
2 | NS(=O)(=O)CCNC(=O)C(c1nc2ccc(-c3cnn(CCN4CCOCC4)c3)cc2s1)S(=O)(=O)Cc1ccc(F)cc1 (stereo not drawn) [Example B75, 2-((4-fluorobenzyl)sul-fonyl)-2-(6-(1-(2-(4-morpholinyl)ethyl)-1H-pyrazol-4-yl)-1,3-benzothiazol-2-yl)-N-(2-sulfamoylethyl)acetamide] | < 10 nM | 25000 nM
3 | CC(C)(C)OC(=O)N1CCC(n2cc(-c3ccc4nc(C(C(=O)NCCS(N)(=O)=O)S(C)(=O)=O)sc4c3)cn2)CC1 (stereo not drawn) [Example B76, tert-butyl 4-(4-(2-(1-(methylsulfonyl)-2-oxo-2-((2-sulfamoyl-ethyl)amino)ethyl)-1,3-benzothiazol-6-yl)-1H-pyrazol-1-yl)-1-piperidinecarboxylate] | < 10 nM | 21 nM
4 | NS(=O)(=O)CCNC(=O)C(c1nc2ccc(-c3cnn(CCN4CCOCC4)c3)cc2s1)S(=O)(=O)CC1CC1 (stereo not drawn) [Example B77, 2-[(cyclopropylmethyl)sul-fonyl]-2-(6-{1-[2-(4-morpholinyl)ethyl]-1H-pyrazol-4-yl}-1,3-benzothiazol-2-yl)-N-(2-sulfamoylethyl)acetamide] | < 10 nM | 2260 nM
5 | CS(=O)(=O)C(C(=O)NCCS(N)(=O)=O)c1nc2ccc(-c3c[nH]nc3C(F)(F)F)cc2s1 (stereo not drawn) [Example B78, 2-(methylsulfonyl)-N-(2-sulfamoylethyl)-2-(6-(3-(trifluoromethyl)-1H-pyrazol-4-yl)-1,3-benzothiazol-2-yl)a-cetamide] | < 10 nM | 68 nM
6 | COc1cccc(-c2ccc3nc(C(C(=O)NCCS(N)(=O)=O)S(C)(=O)=O)sc3c2)c1 (stereo not drawn) [Example B79, 2-(6-(3-methoxyphenyl)-1,3-benzothiazol-2-yl)-2-(methylsulfonyl)-N-(2-sulfamoylethyl)acetamide] | < 10 nM | < 10 nM
7 | Cc1nnc(CNC(=O)C(c2nc3cc(C)c(-c4ccc(F)nc4)cc3s2)S(C)(=O)=O)o1 (stereo not drawn) [Example B80, 2-[6-(6-fluoro-3-pyridinyl)-5-methyl-1,3-benzothiazol-2-yl]-N-[(5-methyl-1,3,4-oxadiazol-2-yl)methyl]-2-(methylsulfonyl)acetamide] | < 10 nM | < 10 nM
8 | Cc1nnc(CNC(=O)C(c2nc3cc(C)c(-c4ccc(C(=O)N5CCOCC5)cc4)cc3s2)S(C)(=O)=O)o1 (stereo not drawn) [Example B81, 2-{5-methyl-6-[4-(4-morpholinylcarbonyl)phen-yl]-1,3-benzothiazol-2-yl}-N-[(5-methyl-1,3,4-oxadiazol-2-yl)methyl]-2-(methylsulfonyl)acetamide] | 14 nM | 196 nM
9 | Cc1nnc(CNC(=O)C(c2nc3cc(C)c(-c4ccccc4)cc3s2)S(C)(=O)=O)o1 (stereo not drawn) [Example B82, N-((5-methyl-1,3,4-oxadiazol-2-yl)methyl)-2-(5-methyl-6-phenyl-1,3-benzothiazol-2-yl)-2-(methylsulfonyl)acetamide] | 85 nM | 177 nM
10 | Cc1nnc(CNC(=O)C(c2nc3cc(C)c(-c4cnn(CCN5CCOCC5)c4)cc3s2)S(C)(=O)=O)o1 (stereo not drawn) [Example B83, 2-(5-methyl-6-(1-(2-(4-morpholinyl)ethyl)-1H-pyrazol-4-yl)-1,3-benzothiazol-2-yl)-N-((5-methyl-1,3,4-oxadiazol-2-yl)methyl)-2-(methylsulfonyl)acetamide] | 77 nM | 229 nM
11 | Cc1nnc(CNC(=O)C(c2nc3cc(C)c(-c4ccc(N5CCNCC5)cc4)cc3s2)S(C)(=O)=O)o1 (stereo not drawn) [Example B84, N-((5-methyl-1,3,4-oxadiazol-2-yl)methyl)-2-(5-methyl-6-(4-(piperazin-1-yl)phenyl)-1,3-benzothiazol-2-yl)-2-(methylsulfonyl)acetamide] | 34 nM | 350 nM
12 | Cc1nnc(CNC(=O)C(c2nc3cc(C)c(-c4ccc5c(c4)CCC(=O)N5)cc3s2)S(C)(=O)=O)o1 (stereo not drawn) [Example B85, N-((5-methyl-1,3,4-oxadiazol-2-yl)methyl)-2-(5-methyl-6-(2-oxo-1,2,3,4-tetrahydro-6-quinolinyl)-1,3-benzothiazol-2-yl)-2-(methylsulfonyl)acetamide] | 11 nM | 124 nM
13 | CS(=O)(=O)C(C(=O)NCCS(N)(=O)=O)c1nc2cc(-c3ccc(C(=O)N4CCOCC4)cc3)ccc2s1 (stereo not drawn) [Example B86, 2-(methylsulfonyl)-2-(5-(4-(4-morpholinylcarbonyl)phen-yl)-1,3-benzothiazol-2-yl)-N-(2-sulfamoylethyl)a-cetamide] | < 10 nM | 494 nM
14 | COc1ccc(-c2ccc3sc(C(C(=O)NCCS(N)(=O)=O)S(C)(=O)=O)nc3c2)cn1 (stereo not drawn) [Example B87, 2-(5-(6-methoxy-3-pyridinyl)-1,3-benzothiazol-2-yl)-2-(methylsulfonyl)-N-(2-sulfamoylethyl)acetamide] | 0.5 nM | 2.6 nM
15 | COc1cc(-c2ccc3sc(C(C(=O)NCCS(N)(=O)=O)S(C)(=O)=O)nc3c2)ccn1 (stereo not drawn) [Example B88, 2-(5-(2-methoxy-4-pyridinyl)-1,3-benzothiazol-2-yl)-2-(methylsulfonyl)-N-(2-sulfamoylethyl)acetamide] | 0.5 nM | 2.2 nM
16 | CS(=O)(=O)C(C(=O)NCCS(N)(=O)=O)c1nc2cc(-c3cncnc3)ccc2s1 (stereo not drawn) [Example B89, 2-(methylsulfonyl)-2-(5-(5-pyrimidinyl)-1,3-benzothiazol-2-yl)-N-(2-sulfamoylethyl)acetamide] | 4.4 nM | 70 nM
17 | COCCn1cc(-c2ccc3sc(C(C(=O)NCCS(N)(=O)=O)S(C)(=O)=O)nc3c2)cn1 (stereo not drawn) [Example B90, 2-(5-(1-(2-methoxyethyl)-1H-pyrazol-4-yl)-1,3-benzothiazol-2-yl)-2-(methylsulfonyl)-N-(2-sulfamoylethyl)acetamide] | < 10 nM | 100 nM
18 | CS(=O)(=O)C(C(=O)NCCS(N)(=O)=O)c1nc2cc(-c3cnn(CCN4CCOCC4)c3)ccc2s1 (stereo not drawn) [Example B91, 2-(methylsulfonyl)-2-(5-(1-(2-(4-morpholinyl)ethyl)-1H-pyrazol-4-yl)-1,3-benzothiazol-2-yl)-N-(2-sulfamoylethyl)acetamide] | < 10 nM | 1800 nM
19 | CS(=O)(=O)C(C(=O)NCCS(N)(=O)=O)c1nc2cc(-c3ccccc3)ccc2s1 (stereo not drawn) [Example B92, 2-(methylsulfonyl)-2-(5-phenyl-1,3-benzothiazol-2-yl)-N-(2-sulfamoylethyl)a-cetamide] | < 10 nM | < 10 nM
20 | COCCNC(=O)c1ccc(-c2ccc3sc(C(C(=O)NCCS(N)(=O)=O)S(C)(=O)=O)nc3c2)cc1 (stereo not drawn) [Example B93, N-(2-methoxyethyl)-4-(2-(1-(methylsulfonyl)-2-oxo-2-((2-sulfamoylethyl)a-mino)ethyl)-1,3-benzothiazol-5-yl)ben-zamide] | 0.5 nM | 7.1 nM
21 | CS(=O)(=O)C(C(=O)NCCS(N)(=O)=O)c1nc2cc(-c3ccc(C(=O)NCCO)cc3)ccc2s1 (stereo not drawn) [Example B94, N-(2-hydroxyethyl)-4-(2-(1-(methylsulfonyl)-2-oxo-2-((2-sulfamoylethyl)a-mino)ethyl)-1,3-benzothiazol-5-yl)ben-zamide] | < 10 nM | 123 nM
22 | CS(=O)(=O)C(C(=O)NCCS(N)(=O)=O)c1nc2cc(-c3ccnc(F)c3)ccc2s1 (stereo not drawn) [Example B95, 2-[5-(2-fluoro-4-pyridinyl)-1,3-benzothiazol-2-yl]-2-(methylsulfonyl)-N-(2-sulfamoylethyl)acetamide] | < 10 nM | 70 nM
23 | Cc1nnc(CNC(=O)C(c2nc3cc(C)c(-c4ccc(C(=O)N5CCOCC5)cc4)cc3s2)S(=O)(=O)Cc2ccccc2)o1 (stereo not drawn) [Example B96, 2-(benzylsulfonyl)-2-(5-methyl-6-(4-(4-morpholinylcarbonyl)phen-yl)-1,3-benzothiazol-2-yl)-N-((5-methyl-1,3,4-oxadiazol-2-yl)methyl)a-cetamide] | 27 nM | 251 nM
24 | COc1ccc(-c2cc3sc(C(C(=O)NCc4nnc(C)o4)S(=O)(=O)Cc4ccccc4)nc3cc2C)cn1 (stereo not drawn) [Example B97, 2-(benzylsulfonyl)-2-(6-(6-methoxy-3-pyridinyl)-5-methyl-1,3-benzothiazol-2-yl)-N-((5-methyl-1,3,4-oxadiazol-2-yl)methyl)a-cetamide] | 24 nM | 57 nM

Reference: patent publication US8987314B2, “Amide, urea or sulfone amide linked benzothiazole inhibitors of endothelial lipase” (Bristol-Myers Squibb Company, priority 2012, dated 2015)
